30 compounds from US20230365592A1 (Agios Pharmaceuticals, Inc., priority 2022, published 2023) can be followed below.

What is called AC50 is the concentration at which the activity in the assay is half-maximal.

For the first assay, the target named is T1, human PAH with the R408W mutation (Homo sapiens, UniProt P00439, R408W).
T1 construct: expressed in transfected cells
T1 sequence (P00439 1-452 R408W): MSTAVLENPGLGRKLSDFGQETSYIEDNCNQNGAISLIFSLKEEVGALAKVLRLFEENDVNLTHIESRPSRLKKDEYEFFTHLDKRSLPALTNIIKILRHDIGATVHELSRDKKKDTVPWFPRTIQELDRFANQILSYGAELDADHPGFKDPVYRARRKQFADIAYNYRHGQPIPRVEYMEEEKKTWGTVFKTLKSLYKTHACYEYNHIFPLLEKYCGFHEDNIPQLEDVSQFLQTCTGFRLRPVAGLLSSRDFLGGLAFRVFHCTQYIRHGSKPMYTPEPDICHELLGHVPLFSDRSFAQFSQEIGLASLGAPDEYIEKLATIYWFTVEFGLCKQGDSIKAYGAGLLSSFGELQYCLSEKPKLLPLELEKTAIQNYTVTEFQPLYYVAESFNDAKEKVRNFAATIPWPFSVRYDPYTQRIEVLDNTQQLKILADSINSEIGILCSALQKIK
In words: Cell Based Phenylalanine Flux Assay.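 Further: after compound treatment, cells received sepiapterin plus isotope-labelled Phenylalanine for 4 hours, then labelled Tyrosine in the medium was quantified, 10-point 2-fold dilution series run in duplicate.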 The conditions noted are these: A375 cells expressing R408W PAH; 24 hrs with compound, then 20 µM sepiapterin and 800 µM 13C9,15N-Phenylalanine for 4 hours; 13C-Tyrosine by LC-MS; average where tested multiple times; read-out: AC50.
As to `Cc1cccn2nc([C@@H]3c4nc[nH]c4CCN3c3nnc(-c4ncccn4)o3)cc12` (single isomer, unassigned), the AC50 fell in the range of 1000 to 5000 nM. On to `CN(C)CCc1ccc2c(C(=O)N3CCc4[nH]cnc4C3c3cc4c(F)cccn4n3)cnn2c1` (stereo not drawn), for which the AC50 lay within 1000 to 5000 nM. Same read-out and setting: then `Fc1cccc2cc(C3c4nc[nH]c4CCN3c3nnc(C(F)F)o3)nn12` (stereo not drawn), with 1000 to 5000 nM; and `FC1(F)CC(c2nnc(N3CCc4[nH]cnc4C3c3cc4c(C(F)(F)F)cccn4n3)o2)C1` (stereo not drawn), with 1000 to 5000 nM; and `O=C(c1ccn[nH]1)N1CCc2[nH]cnc2C1c1cc2ccccn2n1` (stereo not drawn), with greater than 5000 nM. Take `Cc1cccc2cc(C3c4nc[nH]c4CCN3C(=O)c3nc(C(F)(F)F)nn3C)nn12` (stereo not drawn): the AC50 lay within 1000 to 5000 nM.

On to `CC(C)(O)c1ncc(C(=O)N2CCc3[nH]cnc3C2c2cc3cccc(C(F)(F)F)n3n2)o1` (stereo not drawn), for which the AC50 was in the range of 1000 to 5000 nM.

The same assay, now with this note: A375 cells expressing human PAH R408W; 24 hrs compound incubation; 13C-Tyrosine by LC-MS; average where tested multiple times; read-out: AC50.
On to `CC(C)(O)c1ncc(C(=O)N2CCc3[nH]cnc3[C@H]2c2cc3c(F)cccn3n2)o1` [Example 2382, (S)-(4-(4-fluoropyrazolo[1,5-a]pyridin-2-yl)-6,7-dihydro-1H-imidazo[4,5-c]pyridin-5(4H)-yl)(2-(2-hydroxypropan-2-yl)oxazol-5-yl)methanone], for which the AC50 is 1000 to 5000 nM.

For `c1ccc(N2CCc3[nH]cnc3[C@H]2c2cc3ccccn3n2)cc1` [Example 2239, (S)-5-phenyl-4-(pyrazolo[1,5-a]pyridin-2-yl)-4,5,6,7-tetrahydro-1H-imidazo[4,5-c]pyridine], the AC50 was less than 500 nM. For the compound `Fc1cccn2nc([C@@H]3c4nc[nH]c4CCN3c3ccccn3)cc12` [Example 1977, (S)-4-(4-fluoropyrazolo[1,5-a]pyridin-2-yl)-5-(pyridin-2-yl)-4,5,6,7-tetrahydro-1H-imidazo[4,5-c]pyridine], the concentration at half-maximal activity (AC50) was in the range of 500 to 1000 nM. Same read-out and setting: the value for `O=C(c1nnc(C2CC2)o1)N1CCc2[nH]cnc2[C@@H]1c1cc2ccc(F)cn2n1` [Example 2405, (R)-(5-cyclopropyl-1,3,4-oxadiazol-2-yl)(4-(6-fluoropyrazolo[1,5-a]pyridin-2-yl)-6,7-dihydro-1H-imidazo[4,5-c]pyridin-5(4H)-yl)methanone] was greater than 5000 nM; that for `COc1cccn2nc([C@H]3c4nc[nH]c4CCN3C(=O)c3nnc(-c4cnn(C(F)F)c4)o3)cc12` [Example 2447, (R)-(5-(1-(difluoromethyl)-1H-pyrazol-4-yl)-1,3,4-oxadiazol-2-yl)(4-(4-methoxypyrazolo[1,5-a]pyridin-2-yl)-6,7-dihydro-1H-imidazo[4,5-c]pyridin-5(4H)-yl)methanone] was greater than 5000 nM. For `COc1cccn2nc([C@H]3c4nc[nH]c4CCN3c3ncc(C(F)(F)F)cn3)cc12` [Example 2201, (R)-4-(4-methoxypyrazolo[1,5-a]pyridin-2-yl)-5-(5-(trifluoromethyl)pyrimidin-2-yl)-4,5,6,7-tetrahydro-1H-imidazo[4,5-c]pyridine], the AC50 was greater than 5000 nM. On to `Fc1cccc(N2CCc3[nH]cnc3[C@@H]2c2cc3ccccn3n2)n1` [Example 2134, (R)-5-(6-fluoropyridin-2-yl)-4-(pyrazolo[1,5-a]pyridin-2-yl)-4,5,6,7-tetrahydro-1H-imidazo[4,5-c]pyridine], for which the AC50 lay within 1000 to 5000 nM.

On to `O=C(c1ccnn1C1CC1)N1CCc2[nH]cnc2[C@H]1c1cc2ccccn2n1` [Example 2386, (S)-(1-cyclopropyl-1H-pyrazol-5-yl)(4-(pyrazolo[1,5-a]pyridin-2-yl)-6,7-dihydro-1H-imidazo[4,5-c]pyridin-5(4H)-yl)methanone], for which the AC50 was 1000 to 5000 nM.

On to `FC(F)c1cccn2nc([C@@H]3c4nc[nH]c4CCN3c3cncc(Cl)n3)cc12` [Example 1829, (S)-5-(6-chloropyrazin-2-yl)-4-(4-(difluoromethyl)pyrazolo[1,5-a]pyridin-2-yl)-4,5,6,7-tetrahydro-1H-imidazo[4,5-c]pyridine], for which the AC50 is less than 500 nM.

The same assay, now with this note: A375 cells expressing human R408W PAH; 24 hrs compound incubation; 13C-Tyrosine by LC-MS; average where tested multiple times; read-out: AC50.
As for `Cc1cccn2nc([C@@H]3c4nc[nH]c4CCN3c3nnc(C4CC4)o3)cc12` [Example 1589, (S)-2-cyclopropyl-5-(4-(4-methylpyrazolo[1,5-a]pyridin-2-yl)-6,7-dihydro-1H-imidazo[4,5-c]pyridin-5(4H)-yl)-1,3,4-oxadiazole], the half-maximal activity concentration (AC50) was in the range of 500 to 1000 nM. As to `COc1ccc(-c2nnc(C(=O)N3CCc4[nH]cnc4[C@H]3c3cc4cccc(F)n4n3)o2)nc1` [Example 1525, (S)-(4-(7-fluoropyrazolo[1,5-a]pyridin-2-yl)-6,7-dihydro-1H-imidazo[4,5-c]pyridin-5(4H)-yl)(5-(5-methoxypyridin-2-yl)-1,3,4-oxadiazol-2-yl)methanone], the AC50 lay within 500 to 1000 nM. As for `Cc1ncccc1-c1nnc(C(=O)N2CCc3[nH]cnc3[C@H]2c2cc3cccc(C(F)F)n3n2)o1` [Example 1500, (S)-(4-(7-(difluoromethyl)pyrazolo[1,5-a]pyridin-2-yl)-6,7-dihydro-1H-imidazo[4,5-c]pyridin-5(4H)-yl)(5-(2-methylpyridin-3-yl)-1,3,4-oxadiazol-2-yl)methanone], the AC50 was less than 500 nM. On the same count and under the same terms, then `CC(C)c1nnc(C(=O)N2CCc3[nH]cnc3[C@@H]2c2cc3c(Cl)cccn3n2)o1` [Example 1485, (R)-(4-(4-chloropyrazolo[1,5-a]pyridin-2-yl)-6,7-dihydro-1H-imidazo[4,5-c]pyridin-5(4H)-yl)(5-isopropyl-1,3,4-oxadiazol-2-yl)methanone], with 1000 to 5000 nM; and `O=C(c1nnc(C2CC2)o1)N1CCc2[nH]cnc2[C@@H]1c1cc2cc(F)ccn2n1` [Example 1131, (R)-(5-cyclopropyl-1,3,4-oxadiazol-2-yl)(4-(5-fluoropyrazolo[1,5-a]pyridin-2-yl)-6,7-dihydro-1H-imidazo[4,5-c]pyridin-5(4H)-yl)methanone], with 1000 to 5000 nM; and `Cc1cccc(-c2nnc(C(=O)N3CCc4[nH]cnc4[C@@H]3c3cc4cccc(C(F)F)n4n3)o2)n1` [Example 1595, (R)-(4-(7-(difluoromethyl)pyrazolo[1,5-a]pyridin-2-yl)-6,7-dihydro-1H-imidazo[4,5-c]pyridin-5(4H)-yl)(5-(6-methylpyridin-2-yl)-1,3,4-oxadiazol-2-yl)methanone], with greater than 5000 nM. For `CC(C)(C)c1nnc(C(=O)N2CCc3[nH]cnc3[C@@H]2c2cc3c(C(F)F)cccn3n2)o1` [Example 1408, (R)-(5-(tert-butyl)-1,3,4-oxadiazol-2-yl)(4-(4-(difluoromethyl)pyrazolo[1,5-a]pyridin-2-yl)-6,7-dihydro-1H-imidazo[4,5-c]pyridin-5(4H)-yl)methanone], the AC50 lay in the range of 1000 to 5000 nM. For the compound `Cc1cccn2nc([C@@H]3c4nc[nH]c4CCN3C(=O)c3nnc(-c4cnn(C5CCC5)c4)o3)cc12` [Example 1038, (S)-(5-(1-cyclobutyl-1H-pyrazol-4-yl)-1,3,4-oxadiazol-2-yl)(4-(4-methylpyrazolo[1,5-a]pyridin-2-yl)-6,7-dihydro-1H-imidazo[4,5-c]pyridin-5(4H)-yl)methanone], the AC50 was less than 500 nM. With `CC(C)(O)c1nc(Cl)c(C(=O)N2CCc3[nH]cnc3[C@H]2c2cc3c(F)cccn3n2)o1` [Example 756, (S)-(4-chloro-2-(2-hydroxypropan-2-yl)oxazol-5-yl)(4-(4-fluoropyrazolo[1,5-a]pyridin-2-yl)-6,7-dihydro-1H-imidazo[4,5-c]pyridin-5(4H)-yl)methanone], the AC50 is less than 500 nM.

As for `C[C@@H](O)c1nc(C(F)F)c(C(=O)N2CCc3[nH]cnc3[C@H]2c2cc3c(Cl)cccn3n2)o1` [Example 702, ((S)-4-(4-chloropyrazolo[1,5-a]pyridin-2-yl)-6,7-dihydro-1H-imidazo[4,5-c]pyridin-5(4H)-yl)(4-(difluoromethyl)-2-((R)-1-hydroxyethyl)oxazol-5-yl)methanone], the AC50 was less than 500 nM. Regarding `O=C(c1oc(-c2ccccn2)nc1C(F)F)N1CCc2[nH]cnc2[C@@H]1c1cc2ccccn2n1` [Example 645, (R)-(4-(difluoromethyl)-2-(pyridin-2-yl)oxazol-5-yl)(4-(pyrazolo[1,5-a]pyridin-2-yl)-6,7-dihydro-1H-imidazo[4,5-c]pyridin-5(4H)-yl)methanone], the AC50 was 1000 to 5000 nM.

Regarding `O=C(c1cncs1)N1CCc2[nH]cnc2[C@H]1c1cc2ccccn2n1` [Example 602, (S)-(4-(pyrazolo[1,5-a]pyridin-2-yl)-6,7-dihydro-1H-imidazo[4,5-c]pyridin-5(4H)-yl)(thiazol-5-yl)methanone], the concentration at half-maximal activity (AC50) was less than 500 nM. With `O=C(c1oc(-c2ccccn2)nc1C(F)F)N1CCc2[nH]cnc2[C@H]1c1cc2ccccn2n1` [Example 644, (S)-(4-(difluoromethyl)-2-(pyridin-2-yl)oxazol-5-yl)(4-(pyrazolo[1,5-a]pyridin-2-yl)-6,7-dihydro-1H-imidazo[4,5-c]pyridin-5(4H)-yl)methanone], the AC50 is less than 500 nM.

Regarding `Cc1cccn2nc([C@@H]3c4nc[nH]c4CCN3c3ncccn3)cc12` [Example 1618, (S)-4-(4-methylpyrazolo[1,5-a]pyridin-2-yl)-5-(pyrimidin-2-yl)-4,5,6,7-tetrahydro-1H-imidazo[4,5-c]pyridine], the AC50 was less than 500 nM.
